The text below walks through data of patent publication US11286255B2, “Pyridone carboxylic acid derivative or salt thereof” (WAKUNAGA PHARMACEUTICAL CO., LTD., priority 2017, dated 2022).

What is called IC50 is the point on the concentration scale where inhibition reaches its midpoint.

One assay has as its system NCI-H460 (human non-small cell lung cancer cell line). Put plainly: In vitro cell growth inhibition test against NCI-H460. The class given is cell-based. The conditions noted are these: 72 h, NCI-H460 cells, 3 days culture, WST-8 (Cell Counting Kit-8), 50% growth inhibition concentration. The protocol: Test Example 1: In Vitro Cell Growth Inhibition Test Against NCI-H460 (Human Non-Small Cell Lung Cancer Cell Line)
An NCI-H460 cell suspension was inoculated at 4×10^3 cells/100 μL/well (0.1 mL) to a 96-well flat-bottomed multiplate using RPMI-1640 (Sigma-Aldrich Co. LLC, R8758) medium containing 10% […] (fetal bovine serum, Thermo Fisher Scientific Inc.), and cultured at 37° C. for 1 day in an incubator containing 5% carbon dioxide. The compound of the present invention was dissolved at a concentration of 1 mM in dimethyl sulfoxide and further diluted into 5.00, 2.50, 1.25, 0.63, 0.31, 0.16, 0.078, and 0.039 μM (final concentrations) using dimethyl sulfoxide and RPMI-1640 medium. Each of these dilutions was added at 0.1 mL/well to the culture plate of the NCI-H460 cells mentioned above after removal of the medium, and the cells were cultured at 37° C. for 3 days in an incubator containing 5% carbon dioxide.
After the culture, Cell Counting Kit-8 (Dojindo Laboratories), which adopts WST-8 [2-(2-methoxy-4-nitrophenyl)-3-(4-nitrophenyl)-5-(2,4-disulfophenyl)-2H-tetrazolium monosodium salt] as a chromogenic substrate, was added at 10 μL/well, and the cells were cultured under the same conditions as above for 1 hour, followed by measurement of absorbance at 450 nm. A cell survival rate was calculated in terms of 50% growth inhibition concentration (IC50 (μM)) by the least square method with that of a control group defined as 100%.
As to `Cc1ccc(C(=O)NC2CN(c3cc(C)c4c(=O)c(C(=O)O)cn(-c5ncns5)c4n3)C2)nc1` [Example 584, 5-Methyl-7-[3-(5-methylpyridine-2-amido)azetidin-1-yl]-4-oxo-1-(1,2,4-thiadiazol-5-yl)-1,4-dihydro-1,8-naphthyridine-3-carboxylic acid], the IC50 stood at 0.21 µM.

Compound `O=C(O)c1cn(-c2ncns2)c2nc(N3CC(NOCc4ccccc4)C3)c(F)cc2c1=O` [Example 549, 7-{3-[(Benzyloxy)amino]azetidin-1-yl}-6-fluoro-4-oxo-1-(1,2,4-thiadiazol-5-yl)-1,4-dihydro-1,8-naphthyridine-3-carboxylic acid] returned an IC50 of 0.19 µM. With `CCCn1nc(NC(=O)C2CN(c3nc4c(c(C)c3F)c(=O)c(C(=O)O)cn4-c3ncns3)C2)cc1C` [Example 218, 6-Fluoro-5-methyl-7-{3-[(5-methyl-1-propyl-1H-pyrazol-3-yl)carbamoyl]azetidin-1-yl}-4-oxo-1-(1,2,4-thiadiazol-5-yl)-1,4-dihydro-1,8-naphthyridine-3-carboxylic acid], inhibition was half-maximal at 0.26 µM (IC50). On the same count and under the same terms, the same measure for `O=C(O)c1cn(-c2nccs2)c2nc(N3CC(CNc4ccccn4)C3)c(F)cc2c1=O` [Example 561, 6-Fluoro-4-oxo-7-(3-{[(pyridin-2-yl)amino]methyl}azetidin-1-yl)-1-(1,3-thiazol-2-yl)-1,4-dihydro-1,8-naphthyridine-3-carboxylic acid]: 0.9 µM; for `CCONC1CN(c2cc(C)c3c(=O)c(C(=O)O)cn(-c4ncns4)c3n2)C1` [Example 541, 7-[3-(Ethoxyamino)azetidin-1-yl]-5-methyl-4-oxo-1-(1,2,4-thiadiazol-5-yl)-1,4-dihydro-1,8-naphthyridine-3-carboxylic acid]: 0.39 µM; for `Cc1cnc(C2CN(c3cc(C)c4c(=O)c(C(=O)O)cn(-c5ncns5)c4n3)C2)o1` [Example 489, 5-Methyl-7-[3-(5-methyl-1,3-oxazol-2-yl)azetidin-1-yl]-4-oxo-1-(1,2,4-thiadiazol-5-yl)-1,4-dihydro-1,8-naphthyridine-3-carboxylic acid]: 0.26 µM. The same measure, in the same setting: for `CCOCC(COCC)NC(=O)C1CN(c2cc(C)c3c(=O)c(C(=O)O)cn(-c4nccs4)c3n2)C1` [Example 006, 7-{3-[(1,3-Diethoxypropan-2-yl)carbamoyl]azetidin-1-yl}-5-methyl-4-oxo-1-(1,3-thiazol-2-yl)-1,4-dihydro-1,8-naphthyridine-3-carboxylic acid] the value was 0.11 µM; for `Cc1ccc(C(=O)NC2CN(c3nc4c(cc3F)c(=O)c(C(=O)O)cn4-c3nccs3)C2)nc1` [Example 586, 6-Fluoro-7-[3-(5-methylpyridine-2-amido)azetidin-1-yl]-4-oxo-1-(1,3-thiazol-2-yl)-1,4-dihydro-1,8-naphthyridine-3-carboxylic acid], 0.41 µM; for `CNOC1CN(c2cc(C)c3c(=O)c(C(=O)O)cn(-c4ncns4)c3n2)C1` [Example 553, 5-methyl-7-{3-[(methylamino)oxy]azetidin-1-yl}-4-oxo-1-(1,2,4-thiadiazol-5-yl)-1,4-dihydro-1,8-naphthyridine-3-carboxylic acid], 0.38 µM. In turn, `COCC(COC)NC(=O)C1CN(c2cc(C)c3c(=O)c(C(=O)O)cn(-c4nccs4)c3n2)C1` [Example 243, 7-{3-[(1,3-Dimethoxypropan-2-yl)carbamoyl]azetidin-1-yl}-5-methyl-4-oxo-1-(1,3-thiazol-2-yl)-1,4-dihydro-1,8-naphthyridine-3-carboxylic acid] yielded an IC50 of 0.22 µM. For `Cc1cc(N2CC(c3ccon3)C2)nc2c1c(=O)c(C(=O)O)cn2-c1ncns1` [Example 499, 5-Methyl-7-[3-(1,2-oxazol-3-yl)azetidin-1-yl]-4-oxo-1-(1,2,4-thiadiazol-5-yl)-1,4-dihydro-1,8-naphthyridine-3-carboxylic acid], it took 0.2 µM to reach half-maximal inhibition (IC50).

In turn, `O=C(O)c1cn(-c2nccs2)c2nc(N3CC(C(=O)Nc4ccccn4)C3)c(F)cc2c1=O` [Example 083, 6-Fluoro-4-oxo-7-{3-[(pyridin-2-yl)carbamoyl]azetidin-1-yl}-1-(1,3-thiazol-2-yl)-1,4-dihydro-1,8-naphthyridine-3-carboxylic acid] registered an IC50 of 0.19 µM.

As for `CCOCCNC(=O)C1CN(c2cc(C)c3c(=O)c(C(=O)O)cn(-c4nc(-c5cccnc5)cs4)c3n2)C1` [Example 414, 7-{3-[(2-Ethoxyethyl)carbamoyl]azetidin-1-yl}-5-methyl-4-oxo-1-[4-(pyridin-3-yl)-1,3-thiazol-2-yl]-1,4-dihydro-1,8-naphthyridine-3-carboxylic acid], the IC50 is 0.4 µM. `O=C(O)c1cn(-c2nccs2)c2nc(N3CC(C(=O)NCC4CCCCO4)C3)c(F)cc2c1=O` (centres unmarked) [Example 173, 6-Fluoro-7-{3-[(oxan-2-ylmethyl)carbamoyl]azetidin-1-yl}-4-oxo-1-(1,3-thiazol-2-yl)-1,4-dihydro-1,8-naphthyridine-3-carboxylic acid] showed an IC50 of 0.26 µM. As for `CC(=O)C1CN(c2cc(C)c3c(=O)c(C(=O)O)cn(-c4nccs4)c3n2)C1` [Example 020, 7-(3-Acetylazetidin-1-yl)-5-methyl-4-oxo-1-(1,3-thiazol-2-yl)-1,4-dihydro-1,8-naphthyridine-3-carboxylic acid], the IC50 is 0.34 µM. For `Cc1c(F)c(N2CC(n3cccn3)C2)nc2c1c(=O)c(C(=O)O)cn2-c1nccs1` [Example 487, 6-Fluoro-5-methyl-4-oxo-7-[3-(1H-pyrazol-1-yl)azetidin-1-yl]-1-(1,3-thiazol-2-yl)-1,4-dihydro-1,8-naphthyridine-3-carboxylic acid], the IC50 worked out at 0.16 µM.

The test system of another assay is relapsed/refractory acute myeloid leukemia.
Test: not given
To be noted: overall survival targeting all patients; cited from earlier work.
On to `CNC1CN(c2ccc3c(=O)c(C(=O)O)cn(-c4nccs4)c3n2)CC1OC` (centres unmarked) [the compound, 1,4-dihydro-7-(3-methoxy-4-methylamino-1-pyrrolidinyl)-4-oxo-1-(2-thiazolyl)-1,8-naphthyridine-3-carboxylic acid, reference compound], for which the “therapeutic effect in overall survival (primary endpoint) as compared with a placebo group” value was “does not exhibit a significant therapeutic effect”.
